pIC50: −log10 of the molar value.
Key:
BTK = target: T1, BTK (Homo sapiens, UniProt Q06187); assay: Determination of BTK inhibitory activity (ADP-Glo kinase assay); format: biochemical; conditions: BTK (Promega), Poly E4Y substrate, 25° C., 60 minutes
T1 construct: purchased Promega
Procedure: To a 384 reaction plate (6008280, PerkinElmer), 2 μL/well of BTK solution (purchased from Promega) was added. The test compound (10 mM stock solution) was diluted 100-fold to 100 μM with 100% DMSO. In a 384 dilution plate (3657, coming), a 1:3 dilution was made, and the gradient concentrations of the test compounds were 100, 33.3, 11.1, 3.7, 1.24, 0.41, 0.14, 0.046, 0.015, 0.0051, 0 μM. 2 μL of the test compound was transferred to a 384-dilution plate containing 38 μL of 1× Kinase Reaction Buffer, homogenized and centrifuged at 1000 rpm. 1 μL of the test compound was transferred to the 384 reaction plate, centrifuged at 1000 rpm, and incubated at 25° C. for 15 minutes. 2 μL of substrate mixture (ATP: 10 mM, 4 μL; Poly E4Y 1:1 mg/mL, 20 μL; Kinase Reaction Buffer: 776 μL) was transferred to a 384 reaction plate, centrifuged at 1000 rpm and incubated at 25° C. for 60 minutes. The final concentration of the test compound in the reaction system was the gradients of 1000, 333.3, 111.1, 37.03, 12.35, 4.14, 1.37, 0.46, 0.15, 0.051, 0 nM. The final concentration of DMSO was 1%. 5 μL of ADP-Glo solution (purchased from Promega) was transferred to a 384 reaction plate, centrifuged at 1000 rpm and incubated at 25° C. for 40 minutes. 10 μL of Detection solution was transferred to a 384 reaction plate, centrifuged at 1000 rpm and incubated for 40 minutes at 25° C. The RLU (Relative luminescence unit) signal was read using an Envision multi-function reader (Perkin Elmer), and the signal intensity was used to characterize the activity of BTK kinase. The IC50 values was calculated and analyzed by Microsoft Excel software.

[1] = tested on: Type 2 Collagen Induced DBA/1J Mouse Arthritis Model (CIA); assay: Type 2 collagen induced DBA/1J mouse arthritis model (CIA), arthritis index score; format: in vivo; conditions: CIA DBA/1 mice, 30 mg/kg orally once a day, n = 9
Procedure: The CIA model is an animal model widely used to study the drug activity on human rheumatoid arthritis.
Animals: DBA/1 mice, sex: male, number: 30, weight: 14-16 g, age of weeks: 6-7 weeks old, purchased from Beijing Weitong Lihua Experimental Animal Technology Co., Ltd., SPF, animal production license number: SCXK (Beijing) 2012-0001, the issue unit: Beijing Science and Technology Commission.
Group: model control group, administration (30 mg/Kg) group (compound of example 33).
An appropriate amount of Bovine Type II Collage (purchased from Chondrex. Inc.) was dissolved in 0.05 M acetic acid (4 mg collagen/mL) and stored in a refrigerator at 4° C. overnight. Then it was fully emulsified with an equal amount of complete Freund's adjuvant in an ice bath environment. Each DBA/1J mouse was injected subcutaneously at 1.5 cm from the base of the tail with 0.1 mL emulsion (200 μg of collagen). Clinical symptom observation and arthritis score were started 4 weeks after modeling. The scores of all symptomatic animals were ranked and randomly grouped into two groups, which were model control group (the same amount of 0.5% CMC was administered orally) and administration group (30 mg/kg of the compound of Example 33 was administered orally) respectively. The administration was continued for 21 days withonce a day. Arthritis scores and body weight changes were measured every 3 days after administration.
Arthritis Index Score: The arthritis index score is based on Wood's arthritis score as follows: • 0 points: normal • 1 points: redness involving 1 knuckle • 2 points: redness involving more than 2 knuckles or mild redness involving entire foot • 3 points: the feet are red and swollen • 4 points: the feet are severely red and swollen, and the joints are stiff and inelastic.
The damage of each of the 4 paws was graded as 0-4 points and the total score of the limbs was calculated. The scores at different times were compared (arthritis index).

T1 sequence (Q06187 whole entry): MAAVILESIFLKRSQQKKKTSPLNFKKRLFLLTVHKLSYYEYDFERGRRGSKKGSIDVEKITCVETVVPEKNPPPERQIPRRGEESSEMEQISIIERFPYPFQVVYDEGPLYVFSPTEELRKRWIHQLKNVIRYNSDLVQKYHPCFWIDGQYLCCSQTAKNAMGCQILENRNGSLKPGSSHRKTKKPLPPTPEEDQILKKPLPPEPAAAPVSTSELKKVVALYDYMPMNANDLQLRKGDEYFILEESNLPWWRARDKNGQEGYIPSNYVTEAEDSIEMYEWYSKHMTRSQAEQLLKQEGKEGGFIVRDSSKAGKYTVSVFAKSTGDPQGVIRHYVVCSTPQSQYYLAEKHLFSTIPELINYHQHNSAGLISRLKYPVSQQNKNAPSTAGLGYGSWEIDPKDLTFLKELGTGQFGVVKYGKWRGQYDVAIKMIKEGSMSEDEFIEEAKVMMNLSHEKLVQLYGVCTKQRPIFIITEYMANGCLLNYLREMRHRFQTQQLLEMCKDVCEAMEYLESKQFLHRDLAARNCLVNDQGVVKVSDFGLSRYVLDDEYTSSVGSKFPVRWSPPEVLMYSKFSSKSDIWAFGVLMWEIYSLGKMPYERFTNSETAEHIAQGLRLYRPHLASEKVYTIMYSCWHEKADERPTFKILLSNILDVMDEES

In the case of `C=CC(=O)Nc1cc(Oc2ncnc3[nH]c(-c4ccc(N5CCN(C)CC5)cc4)cc23)ccc1F` [Example 18, N-(2-fluoro-5-((6-(4-(4-methylpiperazin-1-yl)phenyl)-7H-pyrrolo[2,3-d]pyrimidin-4-yl)oxy)phenyl)acrylamide], the pIC50 (BTK) was > 7.00.

For `C=CC(=O)Nc1cccc(Oc2c(Cl)cnc3[nH]c(-c4ccc(N5CCN(C)CC5)cc4)cc23)c1` [Example 1, N-(3-((5-chloro-2-(4-(4-methylpiperazin-1yl)phenyl)-1H-pyrrolo[2,3-b]pyridin-4-yl)oxy)phenyl)acrylamide], the pIC50 (BTK) was > 7.00.

For `C=CC(=O)Nc1cc(Oc2ncnc3[nH]c(-c4ccc(N5CCOCC5)cc4)cc23)ccc1F` [Example 19, N-(2-Fluoro-5-((6-(4-morpholinylphenyl)-7H-pyrrolo[2,3-d]pyrimidin-4-yl)oxy)phenyl)acrylamide], the pIC50 (BTK) was > 7.00.

`C=CC(=O)Nc1cccc(Oc2ncnc3[nH]c(-c4ccc(N5CCOCC5)cc4)cc23)c1` [Example 33, N-(3-((6-(4-morpholinylphenyl)-7H-pyrrolo[2,3-d]pyrimidin-4-yl)oxy)phenyl)acrylamide] gave an Arthritis score ([1]; 3 day after administration) of 5.00 ± 3.16, an Arthritis score ([1]; 7 day after administration) of 5.78 ± 2.91 and an Arthritis score ([1]; 10 day after administration) of 6.13 ± 3.23. For the same molecule, the Arthritis score ([1]; 14 day after administration, *P < 0.05 vs model control) was 5.13 ± 3.60*, the Arthritis score ([1]; 17 day after administration, *P < 0.05 vs model control) was 4.63 ± 3.11* and the Arthritis score ([1]; 21 day after administration, **P < 0.01 vs model control) was 3.63 ± 1.92**. It also gave an Arthritis score ([1]; Before administration) of 4.11 ± 3.26.

For `C=CC(=O)Nc1cccc(Oc2ncnc3[nH]c(-c4ccc(N5CCN(C)CC5)c(F)c4)cc23)c1` [Example 25, N-(3-((6-(3-fluoro-4-(4-methylpiperazin-1-yl)phenyl)-7H-pyrrolo[2,3-d]pyrimidin-4-yl)oxy)phenyl)acrylamide], the pIC50 (BTK) was > 7.00.

With `C=CC(=O)Nc1cccc(Nc2ncnc3[nH]c(-c4ccc(N5CCN(C)CC5)cc4)cc23)c1` [Example 5, N-(3-((6-(4-(4-methylpiperazin-1-yl)phenyl)-7H-pyrrolo[2,3-d]pyrimidin-4-yl)amino)phenyl)acrylamide] the pIC50 (BTK) was > 7.00.

In the case of `C=CC(=O)N(C)c1cccc(Oc2ncnc3[nH]c(-c4ccc(N5CCOCC5)cc4)cc23)c1` [Example 16, N-methyl-N-(3-((6-(4-morpholinylphenyl)-7H-pyrrolo[2,3-d]pyrimidin-4-yl)oxy)phenyl)acrylamide], the pIC50 (BTK) was > 7.00.

With `C=CC(=O)Nc1cccc(Oc2ncnc3[nH]c(-c4ccc(NC5CCN(C)CC5)cc4)cc23)c1` [Example 53, N-(3-((6-(4-((1-methylpiperidin-4-yl)amino)phenyl)-7H-pyrrolo[2,3-d]pyrimidin-4-yl)oxy)phenyl)acrylamide] the pIC50 (BTK) was > 7.00.

In the case of `CC#CC(=O)Nc1cccc(Oc2ncnc3[nH]c(-c4ccc(CN5CCC(F)(F)CC5)cc4)cc23)c1` [Example 63, N-(3-((6-(4-((4,4-difluoropiperidin-1-yl)methyl)phenyl)-7H-pyrrolo[2,3-d]pyrimidin-4-yl)oxy)phenyl)but-2-ynylamide], the pIC50 (BTK) was > 7.00.

For `C=CC(=O)Nc1cccc(Oc2ncnc3[nH]c(-c4ccc(CN5CCS(=O)(=O)CC5)cc4)cc23)c1` [Example 44, N-(3-((6-(4-((1,1-dioxothiomorpholinyl)methyl)phenyl)-7H-pyrrolo[2,3-d]pyrimidin-4-yl)oxy)phenyl)acrylamide], the pIC50 (BTK) was > 7.00.

In the case of `CC#CC(=O)Nc1cccc(Oc2ncnc3[nH]c(-c4ccc(CN5CCCCC5)cc4)cc23)c1` [Example 64], the pIC50 (BTK) was > 7.00.

`C=CC(=O)Nc1cccc(Oc2c(F)cnc3[nH]c(-c4ccc(N5CCN(C)CC5)cc4)cc23)c1` [Example 2, N-(3-((5-fluoro-2-(4-(4-methylpiperazin-1yl)phenyl)-1H-pyrrolo[2,3-b]pyridin-4-yl)oxy)phenyl) acrylamide] was tested, and the pIC50 (BTK) was > 7.00.

With `C=CC(=O)Nc1cccc(Nc2ncnc3[nH]c(-c4ccc(N5CCOCC5)cc4)cc23)c1` [Example 32, N-(3-((6-(4-morpholinylphenyl)-7H-pyrrolo[2,3-d]pyrimidin-4-yl)amino)phenyl) acrylamide] the pIC50 (BTK) was > 7.00.

In the case of `CC#CC(=O)Nc1cccc(Oc2ncnc3[nH]c(-c4ccc(N5CCN(C)CC5)cc4)cc23)c1` [Example 6, N-(3-((6-(4-(4-methylpiperazin-1-yl)phenyl)-7H-pyrrolo[2,3-d]pyrimidin-4-yl)oxy)phenyl) but-2-ynylamide], the pIC50 (BTK) was > 7.00.

With `C=CC(=O)Nc1cccc(Oc2ncnc3[nH]c(-c4ccc(CN5CCOCC5)cc4)cc23)c1` [Example 46, N-(3-((6-(4-(morpholinomethyl)phenyl)-7H-pyrrolo[2,3-d]pyrimidin-4-yl)oxy)phenyl)acrylamide] the pIC50 (BTK) was > 7.00.

`C=CC(=O)Nc1cccc(Oc2ncnc3[nH]c(-c4ccc(N5CCN(C)CC5)cc4)cc23)c1` [Example 12, N-(3-((6-(4-(4-methylpiperazin-1-yl)phenyl)-7H-pyrrolo[2,3-d]pyrimidin-4-yl)oxy)phenyl) acrylamide] was tested, and the pIC50 (BTK) was > 7.00.

For `C=CC(=O)Nc1cccc(Oc2ncnc3[nH]c(-c4ccc(CN5CCC(F)(F)CC5)cc4)cc23)c1` [Example 47, N-(3-((6-(4-((4,4-Difluoropiperidin-1-yl)methyl)phenyl)-7H-pyrrolo[2,3-d]pyrimidin-4-yl)oxy)phenyl)acrylamide], the pIC50 (BTK) was > 7.00.
